{"source": "paper PMC8881610", "about": "(Nature Communications, 2022)", "type_in_all_cases": "cell-based", "key": {"GIPR": {"target": "T1, GIPR (Homo sapiens, UniProt P48546, R192A)", "T1 sequence (P48546 22-466 R192A)": "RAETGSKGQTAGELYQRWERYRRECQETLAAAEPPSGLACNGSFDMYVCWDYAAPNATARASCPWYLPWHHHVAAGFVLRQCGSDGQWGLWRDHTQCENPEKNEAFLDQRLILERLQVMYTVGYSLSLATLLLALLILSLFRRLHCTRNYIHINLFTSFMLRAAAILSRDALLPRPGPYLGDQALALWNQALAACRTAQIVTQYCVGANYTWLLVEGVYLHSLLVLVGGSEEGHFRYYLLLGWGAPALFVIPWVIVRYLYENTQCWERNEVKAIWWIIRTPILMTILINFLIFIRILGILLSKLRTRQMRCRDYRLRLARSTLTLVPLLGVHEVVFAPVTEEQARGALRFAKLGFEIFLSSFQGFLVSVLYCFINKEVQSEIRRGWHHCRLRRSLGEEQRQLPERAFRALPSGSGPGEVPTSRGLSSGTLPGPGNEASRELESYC", "test": "cAMP accumulation assay (LANCE Ultra cAMP kit), GIPR WT, mutant or modified constructs", "set-up": "acylated tirzepatide to the full-length or modified; Flag; expressed in transfected cells; host or cells: HEK293T", "conditions": "GIPR R192A, HEK293T", "summary_of_the_method": "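HEK293T cells transiently transfected with human GIPR WT or mutant constructs (pcDNA3.1), used after 24 h. The cells were stimulated with peptide agonists for 40 min at RT in HBSS with 5 mM HEPES, 0.1% BSA or casein, and 0.5 mM IBMX. cAMP was read by LANCE Ultra TR-FRET (Eu-cAMP tracer/ULight anti-cAMP, 1 h RT, 620/650 nm).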"}, "GCGR [1]": {"target": "GCGR (Homo sapiens, UniProt P47871, Y138A)", "sequence (P47871 26-477 Y138A)": "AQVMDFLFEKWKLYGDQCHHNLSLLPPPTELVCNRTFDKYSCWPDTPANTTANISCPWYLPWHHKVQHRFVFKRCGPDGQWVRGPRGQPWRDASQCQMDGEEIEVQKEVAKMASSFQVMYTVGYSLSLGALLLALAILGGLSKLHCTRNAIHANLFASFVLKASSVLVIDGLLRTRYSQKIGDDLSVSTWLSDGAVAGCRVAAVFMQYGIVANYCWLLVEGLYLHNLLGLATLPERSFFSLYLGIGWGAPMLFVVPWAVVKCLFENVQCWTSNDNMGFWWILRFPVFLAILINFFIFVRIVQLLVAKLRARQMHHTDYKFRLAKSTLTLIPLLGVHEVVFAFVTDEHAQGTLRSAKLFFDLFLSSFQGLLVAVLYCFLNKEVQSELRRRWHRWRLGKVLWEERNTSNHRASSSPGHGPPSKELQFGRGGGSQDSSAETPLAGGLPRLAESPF", "test": "cAMP accumulation assay, GCGR WT, mutant or modified constructs", "set-up": "V5 (C); 6×His (C); expressed in transfected cells; host or cells: HEK293T", "conditions": "HEK-293T, GCGR Y138A; HEK293T", "description": "(§1) Human embryonic kidney 293 cells containing SV40 large T-antigen (HEK293T) were cultured in DMEM (Gibco) supplemented with 10% (v/v) fetal bovine serum (FBS, Gibco), 1 mM sodium pyruvate (Gibco) and 100 units/mL penicillin and 100 μg/mL streptomycin at 37 °C in 5% CO2. Chinese hamster ovary (CHO-K1) cells were cultured in F-12 (Gibco) containing 10% FBS, 100 units/mL penicillin and 100 μg/mL streptomycin at 37 °C in 5% CO2. For cAMP and receptor expression assays, HEK293T cells were seeded into 6-well cell culture plates at a density of 7 × 10^5 cells per well. After overnight incubation, cells were transfected with GIPR, GLP-1R or GCGR construct using Lipofectamine 2000 or Lipofectamine 3000 transfection reagent (Invitrogen). For whole-cell binding assay, CHO-K1 cells were seeded into 96-well fibronectin-treated cell culture plates at a density of 3 × 10^4 cells per well. After overnight incubation, cells were transfected with GIPR, GLP-1R or GCGR construct using Lipofectamine 2000 transfection reagent (Invitrogen). Following 24 h culturing, the transfected cells were ready for use. […]\n(§2) For GIPR, GLP-1R and GCGR, multi-targeting agonist stimulated cAMP accumulation was measured by a LANCE Ultra cAMP kit (PerkinElmer). After 24 h culture, the transfected cells were seeded into 384-well microtiter plates at a density of 3,000 cells per well in HBSS supplemented with 5 mM HEPES, 0.1% (w/v) BSA or 0.1% (w/v) casein and 0.5 mM 3-isobutyl-1-methylxanthine. The cells were stimulated with different concentrations of peptide agonists for 40 min at RT. Eu-cAMP tracer and ULight^TM-anti-cAMP were then diluted by cAMP detection buffer and added to the plates separately to terminate the reaction. Plates were incubated at RT for 1 h and the fluorescence intensity measured at 620 nm and […] by an EnVision multilabel plate reader (PerkinElmer)."}, "GCGR [2]": {"target": "GCGR (Homo sapiens, UniProt P47871, Y145A)", "sequence (P47871 26-477 Y145A)": "as the sequence (P47871 26-477 Y138A) above, with A113Y, Y120A counted along it", "test": "cAMP accumulation assay, GCGR WT, mutant or modified constructs", "set-up": "V5 (C); 6×His (C); expressed in transfected cells; host or cells: HEK293T", "conditions": "HEK-293T, GCGR Y145A; HEK293T", "description": "as §1, §2"}, "GCGR [3]": {"target": "GCGR (Homo sapiens, UniProt P47871, W215A)", "sequence (P47871 26-477 W215A)": "as the sequence (P47871 26-477 Y138A) above, with A113Y, W190A counted along it", "test": "cAMP accumulation assay, GCGR WT, mutant or modified constructs", "set-up": "V5 (C); 6×His (C); expressed in transfected cells; host or cells: HEK293T", "conditions": "HEK-293T, GCGR W215A; HEK293T", "description": "as §1, §2"}, "GCGR [4]": {"target": "GCGR (Homo sapiens, UniProt P47871, K205A)", "sequence (P47871 26-477 K205A)": "as the sequence (P47871 26-477 Y138A) above, with A113Y, K180A counted along it", "test": "cAMP accumulation assay, GCGR WT, mutant or modified constructs", "set-up": "V5 (C); 6×His (C); expressed in transfected cells; host or cells: HEK293T", "conditions": "GCGR K205A, HEK293T", "description": "as §1, §2"}, "GCGR [5]": {"target": "GCGR (Homo sapiens, UniProt P47871, D195A/Q142A/R199A)", "sequence (P47871 26-477 Q142A/D195A/R199A)": "as the sequence (P47871 26-477 Y138A) above, with A113Y, Q117A, D170A, R174A counted along it", "test": "cAMP accumulation assay, GCGR WT, mutant or modified constructs", "set-up": "V5 (C); 6×His (C); expressed in transfected cells; host or cells: HEK293T", "conditions": "HEK-293T, GCGR Q142A/D195A/R199A; HEK293T", "description": "as §1, §2"}, "[6]": {"conditions": "read-out: cAMP pEC50 (converted)"}}, "data": [{"smiles": "CCCCCCCCCCCCCCCC(=O)N[C@@H](CCC(=O)NCCCC[C@H](NC(=O)[C@H](CC(=O)O)NC(=O)[C@H](CO)NC(=O)[C@@H](NC(=O)[C@H](Cc1ccccc1)NC(=O)[C@@H](NC(=O)CNC(=O)[C@H](CCC(N)=O)NC(=O)C(C)(C)NC(=O)[C@@H](N)Cc1c[nH]cn1)[C@@H](C)O)[C@@H](C)O)C(=O)N[C@@H](CO)C(=O)N[C@@H](CCCCN)C(=O)N[C@@H](Cc1ccc(O)cc1)C(=O)N[C@@H](CC(C)C)C(=O)N[C@@H](CC(=O)O)C(=O)N[C@@H](CCC(=O)O)C(=O)N[C@@H](CCCNC(=N)N)C(=O)N[C@@H](C)C(=O)N[C@@H](C)C(=O)N[C@@H](CCC(N)=O)C(=O)N[C@@H](CC(=O)O)C(=O)N[C@@H](Cc1ccccc1)C(=O)N[C@H](C(=O)N[C@@H](CCC(N)=O)C(=O)N[C@@H](Cc1c[nH]c2ccccc12)C(=O)N[C@@H](CC(C)C)C(=O)N[C@@H](CC(C)C)C(=O)N[C@@H](CC(=O)O)C(=O)NCC(=O)NCC(=O)N1CCC[C@H]1C(=O)N[C@@H](CO)C(=O)N[C@@H](CO)C(=O)NCC(=O)N[C@@H](C)C(=O)N1CCC[C@H]1C(=O)N1CCC[C@H]1C(=O)N1CCC[C@H]1C(=O)N[C@@H](CO)C(N)=O)C(C)C)C(=O)O", "note": "[Peptide 20]", "values": [{"measurement": "EC50", "setting": "GIPR; [6]", "value": 0.0302, "unit": "nM"}, {"measurement": "Emax", "setting": "GIPR; HEK-293T", "value": "101 ± 1.91", "unit": "%"}, {"measurement": "Emax", "setting": "GCGR [1]", "value": "101 ± 2.39", "unit": "%"}, {"measurement": "Emax", "setting": "GCGR [2]", "value": "103 ± 1.79", "unit": "%"}, {"measurement": "Emax", "setting": "GCGR [3]", "value": "99.6 ± 2.02", "unit": "%"}, {"measurement": "EC50", "setting": "GCGR [4]; [6]", "value": 0.0132, "unit": "nM"}, {"measurement": "Emax", "setting": "GCGR [4]; HEK-293T", "value": "101 ± 1.28", "unit": "%"}, {"measurement": "Emax", "setting": "GCGR [5]", "value": "100 ± 2.37", "unit": "%"}]}]}
